Literature values as cited in US20100196363A1, “CANCER TREATMENT COMBINATION THERAPY COMPRISING VINFLUNINE AND TRASTUZUMAB” (Pierre Fabre Medicament, priority 2007, published 2010).

System: breast cancer
Settings: vinflunine alone, same dosage, regimen and period; breast cancer patients

For `CC[C@]12C=CCN3CC[C@@]4(c5cc([C@@]6(C(=O)OC)C[C@@H]7C[C@@H](C(C)(F)F)CN(Cc8c6[nH]c6ccccc86)C7)c(OC)cc5N(C)[C@H]4[C@@](O)(C(=O)OC)[C@@H]1OC(C)=O)[C@@H]32` [Vinflunine, 20′,20′difluoro-3′,4′-dihydrovinorelbine], the “Overall Response (RECIST)” value is listed as “about 30%”.
